Assay results reported in patent US12186358B2, “Compositions and methods for supporting immune health” (Plexus Worldwide, LLC, priority 2021, dated 2025).

How the values were obtained:
Assay type in all cases: cell-based, Human
Conditions in all cases: LPS 0.1 ng/mL
IL-6 = test: Cytokine expression in PBMC supernatants (Luminex multiplex): IL-6
Procedure: (§1) An exemplary natural-based composition is evaluated in an in vitro Peripheral Blood […] Cells cellular inflammation model.
(§2) Test Item Preparation: 120 mg of the exemplary composition (Project Shield) was dissolved in 6000 μL of CGM on the day of use to create a 2% (w/v) Dilution Stock Solution. A 2 ng/mL Working Stock of Lipopolysaccharides (“LPS”) was prepared fresh with IM and stored at 2-8° C. 10 μL LPS (2 ng/mL) was added to the appropriate wells for a final concentration of 0.1 ng/mL.
(§3) Complete Growth Media (CGM): To formulate CGM, RPMI was supplemented with 10% FBS and 100 U/mL penicillin+100 μg/mL streptomycin. CGM was prepared aseptically and stored at 2-8° C. for the duration of the study. CGM was warmed to 37° C. prior to use.
(§4) Cell Culture Set-up: Cells were thawed according to manufacturer's instructions, washed in CGM and assessed for viability using trypan blue staining. A stock cell solution of 2×10^6 cells/mL suspended in CGM was prepared. 100 μL of the stock solution was added to appropriate wells of a 96-well plate to seed 2×10^5 cells per well. […]
(§5) As illustrated in FIGS. 1-8, inflammatory cytokine expression for cell supernatants at 48 hours post stimulation/treatment. Expression was assessed by multiplex using the Luminex platform for the following cytokines: IFNγ, IL-1β, IL-6, IL-8, IL-10, IL-12p40, IL-12p70, TNF-α. […]

IL-12p70 = test: Cytokine expression in PBMC supernatants (Luminex multiplex): IL-12p70
Procedure: as §1, §2, §3, §4, §5

IL-10 = test: Cytokine expression in PBMC supernatants (Luminex multiplex): IL-10
Procedure: as §1, §2, §3, §4, §5

TNF-α = test: Cytokine expression in PBMC supernatants (Luminex multiplex): TNF-α
Procedure: as §1, §2, §3, §4, §5

IL-8 = test: Cytokine expression in PBMC supernatants (Luminex multiplex): IL-8
Procedure: as §1, §2, §3, §4, §5

IL-12p40 = test: Cytokine expression in PBMC supernatants (Luminex multiplex): IL-12p40
Procedure: as §1, §2, §3, §4, §5

IFNγ = test: Cytokine expression in PBMC supernatants (Luminex multiplex): IFNγ
Procedure: as §1, §2, §3, §4, §5

IL-1β = test: Cytokine expression in PBMC supernatants (Luminex multiplex): IL-1β
Procedure: as §1, §2, §3, §4, §5

## Lipopolysaccharides [LPS]
IL-6; donor 1, 48 h
  IL-6, LPS control Group vs Media Control: significantly increased
IL-6; donor 2, 48 h
  IL-6, LPS control Group vs Media Control: significantly increased
IL-12p70; donor 1, 48 h
  IL-12p70, LPS control Group vs Media Control: significantly increased
IL-12p70; donor 2, 48 h
  IL-12p70, LPS control Group vs Media Control: significantly increased
IL-10; donor 1, 48 h
  IL-10, LPS control Group vs Media Control: significantly increased
IL-10; donor 2, 48 h
  IL-10, LPS control Group vs Media Control: not donor 2
TNF-α; donor 1, 48 h
  TNF-α, LPS control Group vs Media Control: not donor 1
TNF-α; donor 2, 48 h
  TNF-α, LPS control Group vs Media Control: significantly increased
IL-8; donor 1, 48 h
  IL-8, LPS control Group vs Media Control: not donor 1
IL-8; donor 2, 48 h
  IL-8, LPS control Group vs Media Control: significantly increased
IL-12p40; donor 1, 48 h
  IL-12p40, LPS control Group vs Media Control: significantly increased
IL-12p40; donor 2, 48 h
  IL-12p40, LPS control Group vs Media Control: significantly increased
IFNγ; donor 1, 48 h
  IFNγ, LPS control Group vs Media Control: significantly increased
IFNγ; donor 2, 48 h
  IFNγ, LPS control Group vs Media Control: significantly increased
IL-1β; donor 1, 48 h
  IL-1β, LPS control Group vs Media Control: not significantly increased
IL-1β; donor 2, 48 h
  IL-1β, LPS control Group vs Media Control: not significantly increased
